The record followed here is US6451800B1, “Phenylpiperazine derivatives as integrin αvβ3 antagonists” (Meiji Seika Kaisha, Ltd., priority 1998, dated 2002).

Data set [1] has as its system human platelet aggregation. The data set is described as follows: Human platelet aggregation inhibitory activity (method of Pharmacological Test 1 in WO 94/21599). Format: cell-based. The protocol: (§1) GP IIb/IIIa Antagonistic Activity and Human Platelet Aggregation Inhibitory Activity
Human platelet aggregation inhibitory activity was measured for the compounds according to the present invention. The measurement of the human platelet aggregation activity was carried out according to the method described in Pharmacological Test 1 in WO 94/21599.

A further data set is described as follows: Oral absorption in rats. The conditions noted are these: data not shown. Format: in vivo. From the text: Therefore, any of the compounds, wherein R^9 represents an alkyl group or a hydrogen atom, can be used in the treatment of the above diseases.
In the next data set the target is GP IIb/IIIa (Homo sapiens, UniProt P05106+P08514). The data set is described as follows: GP IIb/IIIa antagonistic activity (method of Pharmacological Test 2 in WO 94/21599). Format: binding. The method, then:
as §1
GP IIb/IIIa antagonistic activity was measured for the compounds according to the present invention. The measurement of the GP IIb/IIIa antagonistic activity was carried out according to the method described in Pharmacological Test 2 in WO 94/21599.

The subject of a further data set is mice. The data set is described as follows: Acute toxicity test, intravenous administration to mice. The conditions noted are these: 12.5 mg/kg. Format: in vivo. The text has this: The compound of Example 3 was intravenously administered to mice.
The test system of data set [2] is human vascular smooth muscle cells. The data set is described as follows: Inhibition of adhesion of human vascular smooth muscle cells to immobilized human vitronectin. The class given is cell-based. The conditions noted are these: read-out: IC50, inhibitory activity against the adhesion of human vascular smooth muscle cells to vitronectin. The method, then: Inhibitory Activity Against Adhesion of Human Vascular Smooth Muscle Cells to Vitronectin
The adhesion of human vascular smooth muscle cells to immobilized human vitronectin was measured in accordance with the method of Liaw et al. (Liaw L, Almeida M, Hart C E, Schwartz S M, and Giachelli C M, Circulation Research, 74 (2), 214-224 (1994)).
A Dulbecco's phosphate buffer (Dulbecco's PBS(−), Nissui Pharmaceutical Co., Ltd.) solution of human plasma-derived vitronectin (CALBIOCHEM) adjusted to a concentration of 4 μg/ml was first added to wells (50 μl/well) of a microplate (Maxisorp, Nunc), and a reaction for immobilization was allowed to proceed at 4° C. overnight. […]
Next, 50 μl of a Dulbecco's modified Eagle's basal medium containing 10 mg/ml of bovine serum albumin with a medicament added thereto was added to the wells of the human vitronectin-coated assay microplate, followed by pre-cultivation under 5% carbon dioxide at 37° C. for 10 min. […] The absorbance of the microplate thus obtained was measured at 595 nm. […] The inhibition was calculated by the following equation. IC50 was determined from a primary regression line of the logarithm of each concentration of the test compound and the logarithm of (100−inhibition)/inhibition. […]

Data set [3] has as its target T1, integrin αvβ3 (vitronectin receptor purified from the human placenta) (Homo sapiens, UniProt P05106+P06756).
T1 construct: a vitronectin receptor (protein content: 118 μg/ml) purified from the human placenta; from tissue; host or cells: human placenta
The data set is described as follows: αvβ3 binding assay (vitronectin-vitronectin receptor binding assay). The conditions noted are these: vitronectin receptor from human placenta; read-out: IC50, inhibition of binding between vitronectin and vitronectin receptor (αvβ3 binding inhibitory activity). The protocol:
Integrin αvβ3 antagonistic activity was measured for the compounds according to the present invention in a vitronectin-vitronectin receptor binding assay system in accordance with the method of Kouns et al. (W. C. Kouns, D. Kirchhofer, P. Hadvary, A. Edenhofer, T. Weller, G. Pfenninger, H. R. Baumgartner, L. K. Jennings and B. Steiner, Blood, 8, 2539-2547 (1992)).
Specifically, a vitronectin receptor (protein content: 118 μg/ml) purified from the human placenta in accordance with the method of Pytela et al. (R. Pytela, M. D. Pierschbacher, S. Argraves, S. Suzuki, and E. Ruoslahti, Method in Enzymology, 144, 475-489 (1987)) was diluted 50 times with TBS (20 mM Tris-HCl, 150 mM NaCl, 1 mM CaCl2, 1 mM MgCl2, pH 7.4), and distributed and coated on wells (50 μl/well) of a plate (Maxisorp, Nunc, 96 well Immuno Plate). The plate was then allowed to stand at 4° C. for 1 day, washed twice with TBS (200 μl/well), and then subjected to blocking with TBS (150 μl/well) containing 1% bovine serum albumin (SIGMA) at 4° C. overnight. After washing twice with TBS (200 μl/well), 50 μl of vitronectin (CALBIOCHEM) adjusted to 0.2 μg/ml by the addition of TBS (TBS-Tween) containing 0.01% Tween-20 was mixed with 50 μl of each test compound adjusted to each concentration in wells, and a reaction was allowed to proceed at room temperature for 4 hr. After the completion of the reaction, the wells were washed five times with TBS-Tween. A solution prepared by diluting anti-vitronectin rabbit antiserum (CHEMICON) 500 times with TBS-Tween was added as a primary antibody in an amount of 50 μl per well, and a reaction was allowed to proceed at room temperature for 1.5 hr. After washing five times with 200 μl/well of TBS-Tween, a peroxidase (POD)-labeled anti-rabbit IgG antibody solution (CAPPEL) diluted 500 times with TBS-Tween was added as a secondary antibody in an amount of 50 μl/well, and a reaction was allowed to proceed at room temperature for 1.5 hr. After washing five times with TBS-Tween (200 μl /well), ABTS (2,2′-azino-bis(3-ethylbenzthiazoline-6-sulfonic acid), SIGMA) was adjusted to 1 mg/ml by the addition of a ten-fold diluted POD-buffer (ZYMED), and added in an amount of 50 μl/well, and a reaction was allowed to proceed for 5 to 10 min. A 0.1 M citric acid buffer (pH 4.3) containing 0.05% NaN3 was added in an amount of 50 μl/well to stop the reaction, followed by the measurement of the absorbance at 415 nm with a microplate reader (MTP 32, Corona Electric) (reference: 675 nm). The total binding was defined as the absorbance after a reaction using 50 μl of TBS-Tween instead of the test compound, and the non-specific binding (100% inhibition) was defined as the absorbance after a reaction using 50 μl of TBS-Tween containing 2×10^−3 M RGDS. The inhibition was calculated by the following equation: [formula]
IC50 was determined from a primary regression line of the logarithm of each concentration of the test compound and the logarithm of (100−inhibition)/inhibition.

Sequence of GP IIb/IIIa (P08514 32-887 limits assumed): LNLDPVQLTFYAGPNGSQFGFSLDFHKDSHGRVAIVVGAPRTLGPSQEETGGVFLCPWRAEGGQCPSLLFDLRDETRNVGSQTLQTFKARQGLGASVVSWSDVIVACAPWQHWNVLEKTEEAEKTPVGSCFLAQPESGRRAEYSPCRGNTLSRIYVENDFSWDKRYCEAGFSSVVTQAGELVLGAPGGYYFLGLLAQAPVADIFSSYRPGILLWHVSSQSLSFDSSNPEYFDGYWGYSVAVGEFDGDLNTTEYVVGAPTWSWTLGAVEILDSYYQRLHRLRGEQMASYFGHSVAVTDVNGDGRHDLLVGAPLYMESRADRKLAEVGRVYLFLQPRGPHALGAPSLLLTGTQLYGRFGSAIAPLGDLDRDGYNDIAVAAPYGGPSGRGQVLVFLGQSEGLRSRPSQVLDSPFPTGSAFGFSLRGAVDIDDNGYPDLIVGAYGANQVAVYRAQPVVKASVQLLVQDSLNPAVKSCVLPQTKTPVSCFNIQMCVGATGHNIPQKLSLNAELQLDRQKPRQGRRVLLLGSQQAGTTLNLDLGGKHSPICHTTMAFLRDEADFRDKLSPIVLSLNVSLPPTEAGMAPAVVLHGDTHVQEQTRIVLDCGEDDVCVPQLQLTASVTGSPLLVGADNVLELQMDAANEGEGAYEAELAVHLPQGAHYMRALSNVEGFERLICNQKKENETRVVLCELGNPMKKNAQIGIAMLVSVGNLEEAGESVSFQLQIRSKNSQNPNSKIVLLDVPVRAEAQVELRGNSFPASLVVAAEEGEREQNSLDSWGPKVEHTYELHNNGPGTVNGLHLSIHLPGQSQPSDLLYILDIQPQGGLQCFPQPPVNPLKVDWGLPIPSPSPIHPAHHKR
Sequence of GP IIb/IIIa (P08514 891-1039 partner limits assumed): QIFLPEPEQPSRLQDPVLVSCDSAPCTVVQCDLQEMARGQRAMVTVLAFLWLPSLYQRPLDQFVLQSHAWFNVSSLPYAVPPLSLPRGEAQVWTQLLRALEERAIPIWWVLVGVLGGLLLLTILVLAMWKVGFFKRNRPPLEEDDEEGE
Sequence of GP IIb/IIIa (P05106 27-788): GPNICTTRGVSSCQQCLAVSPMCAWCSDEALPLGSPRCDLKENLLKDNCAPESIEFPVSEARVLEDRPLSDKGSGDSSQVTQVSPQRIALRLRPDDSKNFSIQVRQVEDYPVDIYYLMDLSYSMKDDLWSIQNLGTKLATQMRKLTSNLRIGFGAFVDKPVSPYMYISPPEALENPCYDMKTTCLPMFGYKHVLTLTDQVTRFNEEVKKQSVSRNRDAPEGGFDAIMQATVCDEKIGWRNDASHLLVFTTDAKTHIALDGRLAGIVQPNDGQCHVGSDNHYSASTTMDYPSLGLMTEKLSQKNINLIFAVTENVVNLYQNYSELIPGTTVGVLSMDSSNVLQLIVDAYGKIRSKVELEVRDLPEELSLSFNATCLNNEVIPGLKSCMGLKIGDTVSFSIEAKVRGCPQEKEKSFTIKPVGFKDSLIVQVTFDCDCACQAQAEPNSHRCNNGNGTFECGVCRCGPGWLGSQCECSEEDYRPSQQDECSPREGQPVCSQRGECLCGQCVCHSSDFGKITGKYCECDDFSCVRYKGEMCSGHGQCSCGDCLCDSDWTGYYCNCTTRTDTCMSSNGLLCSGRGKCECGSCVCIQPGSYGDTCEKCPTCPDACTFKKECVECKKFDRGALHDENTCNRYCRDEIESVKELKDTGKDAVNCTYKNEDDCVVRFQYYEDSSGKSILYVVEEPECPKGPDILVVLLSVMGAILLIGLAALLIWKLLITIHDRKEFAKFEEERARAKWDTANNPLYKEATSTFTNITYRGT
T1 sequence (P06756 31-889 limits assumed): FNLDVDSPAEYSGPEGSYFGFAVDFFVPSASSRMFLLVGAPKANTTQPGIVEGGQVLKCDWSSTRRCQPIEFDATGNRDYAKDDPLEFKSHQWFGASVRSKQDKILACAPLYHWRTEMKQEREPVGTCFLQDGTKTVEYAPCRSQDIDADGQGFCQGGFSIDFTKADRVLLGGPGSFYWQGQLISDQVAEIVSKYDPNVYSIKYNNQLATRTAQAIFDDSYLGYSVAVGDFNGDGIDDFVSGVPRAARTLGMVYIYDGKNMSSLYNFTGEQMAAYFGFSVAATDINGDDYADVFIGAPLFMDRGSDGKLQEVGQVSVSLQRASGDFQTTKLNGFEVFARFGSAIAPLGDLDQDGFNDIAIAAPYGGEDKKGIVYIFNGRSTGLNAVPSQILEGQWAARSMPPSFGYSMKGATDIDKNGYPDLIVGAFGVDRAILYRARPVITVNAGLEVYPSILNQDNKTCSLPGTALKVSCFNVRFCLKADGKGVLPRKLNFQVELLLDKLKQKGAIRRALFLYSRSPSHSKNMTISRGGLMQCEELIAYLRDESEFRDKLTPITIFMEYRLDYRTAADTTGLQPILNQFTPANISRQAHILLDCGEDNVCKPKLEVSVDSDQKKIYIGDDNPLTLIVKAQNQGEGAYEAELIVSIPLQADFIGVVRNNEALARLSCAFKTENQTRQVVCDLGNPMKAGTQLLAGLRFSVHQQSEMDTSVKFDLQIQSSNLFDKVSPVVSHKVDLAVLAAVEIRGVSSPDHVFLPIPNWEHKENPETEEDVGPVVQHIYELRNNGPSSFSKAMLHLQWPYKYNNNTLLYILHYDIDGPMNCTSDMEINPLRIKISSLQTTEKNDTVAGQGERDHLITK
T1 sequence (P06756 891-1048 partner limits assumed): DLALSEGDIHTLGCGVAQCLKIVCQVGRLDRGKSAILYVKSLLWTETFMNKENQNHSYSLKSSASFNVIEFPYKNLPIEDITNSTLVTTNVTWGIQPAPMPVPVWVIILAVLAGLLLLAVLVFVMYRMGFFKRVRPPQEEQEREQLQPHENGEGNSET
T1 sequence (P05106 27-788): as the sequence (P05106 27-788) above

What is called IC50 is the concentration that gives 50% inhibition. Take `O=C(NC[C@H](NS(=O)(=O)c1ccccc1)C(=O)O)c1ccc(N2CCN(C3=NCCCN3)CC2)cc1` [Example 3, (2S)-Benzenesulfonylamino-3-[4-{4-(1,4,5,6-tetrahydropyrimidin-2-yl)-piperazin-1-yl}-benzoylamino]-propionic acid]: the “human platelet aggregation inhibition (in words)” value in data set [1] is reported as “very strongly inhibited human platelet aggregation”. The IC50 in data set [1] (read-out: IC50, human platelet aggregation inhibition) was found to be 34 nM. Moreover, in the data set “Oral absorption in rats”, the oral absorption entry was “excellent oral absorption”. Moreover, on GP IIb/IIIa, the “GP IIb/IIIa antagonistic activity (in words)” value is recorded as “extremely high GP IIb/IIIa antagonistic activity”. The “acute toxicity, symptoms” value with mice is recorded as “no special symptom was developed”.
Consider `O=C(N[C@@H](CNC(=O)c1ccc(N2CCN(C3=NCCCN3)CC2)cc1)C(=O)O)OCc1ccccc1` [Example 30, (2S)-Benzyloxycarbonylamino-3-[4-{4-(1,4,5,6-tetrahydropyrimidin-2-yl)-piperazin-1-yl}-benzoylamino]-propionic Acid], for which the IC50 in data set [2] worked out at 750 nM; in data set [3] it was 31 nM.
